Experimental data: patent publication US20230103791A1 (GLAXOSMITHKLINE INTELLECTUAL PROPERTY DEVELOPMENT LIMITED, priority 2019, published 2023)
Like-named read-outs stand apart in the source and are kept apart here.

Biological target: T1, human Nav1.8 (Homo sapiens, UniProt Q9Y5Y9)
T1 construct: expressed in transfected cells; host or cells: HEK293 (HEK293-Nav1.8)
Assay: Nav1.8 sodium channels assay, QPatch 48 HTX electrophysiology in HEK293-Nav1.8 cells
Assay type: cell-based
Procedure: Human embryonic kidney […] cells (HEK293) expressing human Nav1.8, human Navβ1 and human TREK1 (HEK293-Nav1.8) were grown at 37° C., 5% CO2 in 150 cm^2 flasks. HEK293-Nav1.8 were passaged every 2-3 days when confluency reached 80-90% in to T175 cell culture flasks.
Pharmacological assessment of the invention was performed using HEK293-Nav1.8 in combination with an assay developed on the QPatch 48 HTX electrophysiological system. HEK293-Nav1.8 were prepared on the day of use by removing culture media, washing in DPBS, adding Accutase (2 ml to cover the surface, aspirate 1 ml then 1.5 min at 37° C.) followed by addition of CHO-SFM II to stop the enzyme digestion and in order to obtain a suspension of 3×10^6 cell/mL.
The invention was prepared in an extracellular solution of the following composition (in mM) NaCl 145, KCl 4, CaCl2 2, MgCl 2, HEPES 1, Glucose 10, pH 7.4 with NaOH Osmolality 300 mOsM/L. The intracellular solution was used of the following composition (in mM) CsF 115, CsCl 20, NaCl 5, EGTA 10, HEPES 10, Sucrose 20, pH 7.2 with CsOH Osmolality 310 mOsm/L.
Utilizing the voltage-clamp mode in the QPatch 48 HTX system a half inactivation state voltage protocol (V1/2) was used to determine pharmacological activity of the invention at Nav1.8 ion channels. A V1/2 protocol was utilized with the following voltage steps: a holding voltage of −100 mV was established followed by a 20 ms voltage step to 0 mV (P1), followed by an inactivating voltage step at −46 mV for 8 seconds, followed by a step to −100 mV for 20 ms, before a 20 ms step to 0 mV (P2) before returning to the holding voltage of −100 mV. This voltage protocol was repeated at a frequency of 0.07 Hz., current magnitude was quantified at the P2 step throughout the recording. Inhibition of the measured current amplitude with the invention was analyzed by fitting a 6-8 point dose-response curve allowing determination of the fifty percent inhibition concentration (IC50). Within the QPatch HTX software, P2 current was normalized according to measurements made at baseline after compound and after positive reference compound and fit to the following equation: […]
To assess current run-down over the course of the experiment vehicle-only wells were utilized and the normalized current with vehicle-only (n.IVEH) was determined. To correct the compound response for run-down, the currents were correct according the following formula: […]
Compounds of the invention are tested for activity against Nav1. 8 sodium channels in the above assay.

[1] = at least one set of experimental runs, read-out: average pIC50 value against Nav1.8 (converted)
[2] = Table 1, HEK293-Nav1.8, QPatch 48 HTX, half inactivation state voltage protocol (V1/2), single run or average of two or more runs, read-out: Nav1.8 pIC50 (converted)

T1 sequence (Q9Y5Y9 whole entry): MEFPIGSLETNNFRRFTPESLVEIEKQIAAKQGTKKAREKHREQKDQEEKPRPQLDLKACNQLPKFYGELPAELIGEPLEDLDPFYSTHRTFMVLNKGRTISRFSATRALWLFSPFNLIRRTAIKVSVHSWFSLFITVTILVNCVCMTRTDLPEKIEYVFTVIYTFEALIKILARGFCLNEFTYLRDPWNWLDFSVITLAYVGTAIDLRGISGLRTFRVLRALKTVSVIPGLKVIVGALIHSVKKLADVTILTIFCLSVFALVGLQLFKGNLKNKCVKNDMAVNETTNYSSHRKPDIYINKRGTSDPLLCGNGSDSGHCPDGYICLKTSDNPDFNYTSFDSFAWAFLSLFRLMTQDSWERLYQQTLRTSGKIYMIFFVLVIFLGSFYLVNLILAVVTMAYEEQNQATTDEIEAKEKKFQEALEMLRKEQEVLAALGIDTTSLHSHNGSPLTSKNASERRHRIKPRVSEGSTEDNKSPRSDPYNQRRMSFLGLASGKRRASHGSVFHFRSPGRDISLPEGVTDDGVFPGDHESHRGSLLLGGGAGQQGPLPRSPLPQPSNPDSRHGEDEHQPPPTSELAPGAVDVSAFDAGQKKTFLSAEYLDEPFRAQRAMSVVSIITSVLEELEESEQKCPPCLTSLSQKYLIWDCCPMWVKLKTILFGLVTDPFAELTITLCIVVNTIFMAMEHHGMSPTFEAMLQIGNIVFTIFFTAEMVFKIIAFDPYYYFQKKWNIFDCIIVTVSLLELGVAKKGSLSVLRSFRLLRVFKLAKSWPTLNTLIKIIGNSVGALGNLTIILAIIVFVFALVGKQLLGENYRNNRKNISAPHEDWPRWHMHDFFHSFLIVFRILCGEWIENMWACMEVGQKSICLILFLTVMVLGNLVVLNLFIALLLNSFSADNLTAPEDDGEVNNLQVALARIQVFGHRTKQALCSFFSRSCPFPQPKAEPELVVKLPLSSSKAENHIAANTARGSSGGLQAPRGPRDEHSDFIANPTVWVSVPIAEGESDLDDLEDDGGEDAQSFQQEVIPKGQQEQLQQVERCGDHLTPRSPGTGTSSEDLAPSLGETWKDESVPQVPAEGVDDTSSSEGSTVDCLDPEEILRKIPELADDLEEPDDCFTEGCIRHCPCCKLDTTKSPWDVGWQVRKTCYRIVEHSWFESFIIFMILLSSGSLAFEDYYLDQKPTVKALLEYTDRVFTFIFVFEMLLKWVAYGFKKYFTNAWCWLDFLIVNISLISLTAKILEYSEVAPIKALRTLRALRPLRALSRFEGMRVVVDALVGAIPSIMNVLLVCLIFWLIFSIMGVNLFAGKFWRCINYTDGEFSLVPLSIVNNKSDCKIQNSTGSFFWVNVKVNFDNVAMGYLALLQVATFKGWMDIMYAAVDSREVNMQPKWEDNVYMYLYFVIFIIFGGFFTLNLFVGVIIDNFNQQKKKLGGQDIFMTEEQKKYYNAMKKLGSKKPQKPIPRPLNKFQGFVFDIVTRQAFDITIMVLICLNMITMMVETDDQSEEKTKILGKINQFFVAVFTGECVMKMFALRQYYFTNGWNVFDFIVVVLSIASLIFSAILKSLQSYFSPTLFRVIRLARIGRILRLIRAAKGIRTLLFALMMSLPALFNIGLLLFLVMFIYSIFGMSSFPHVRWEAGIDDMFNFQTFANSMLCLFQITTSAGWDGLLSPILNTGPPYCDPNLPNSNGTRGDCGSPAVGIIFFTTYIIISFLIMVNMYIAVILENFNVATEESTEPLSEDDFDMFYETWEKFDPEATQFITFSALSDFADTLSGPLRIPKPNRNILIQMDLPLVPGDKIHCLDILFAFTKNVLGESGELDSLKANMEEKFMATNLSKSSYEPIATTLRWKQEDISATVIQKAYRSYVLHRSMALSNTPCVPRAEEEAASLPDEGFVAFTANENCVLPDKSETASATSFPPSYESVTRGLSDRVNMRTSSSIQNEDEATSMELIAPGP
T1 sequence (Q07699 19-218 partner): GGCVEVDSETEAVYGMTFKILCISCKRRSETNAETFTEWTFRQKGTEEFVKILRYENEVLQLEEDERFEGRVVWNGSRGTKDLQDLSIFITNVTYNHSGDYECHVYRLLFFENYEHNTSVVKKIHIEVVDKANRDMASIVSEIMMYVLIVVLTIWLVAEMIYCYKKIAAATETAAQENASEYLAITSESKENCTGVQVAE

Row | Compound | IC50 [1] [nM] | IC50 [2] [nM]
1 | Cc1cc(F)ccc1N1CN(c2ccc(=O)[nH]c2Br)C(=O)c2cc(C(F)(F)F)ccc21 [Example 164, 3-(2-bromo-6-oxo-1,6-dihydropyridin-3-yl)-1-(4-fluoro-2-methylphenyl)-6-(trifluoromethyl)-2,3-dihydroquinazolin-4(1H)-one] | 126 to 631 | 
2 | Cc1[nH]c(=O)ccc1N1CN(c2ccc(F)c(C#N)c2C)c2ccc(C(F)(F)F)cc2C1=O [Example 140, 6-fluoro-2-methyl-3-(3-(2-methyl-6-oxo-1,6-dihydropyridin-3-yl)-4-oxo-6-(trifluoromethyl)-3,4-dihydroquinazolin-1(2H)-yl)benzonitrile] | 126 to 631 | 
3 | Cc1cc(F)ccc1N1CN(c2ccc(=O)[nH]c2C)C(=O)c2c(F)cccc21 [Example 183, 5-fluoro-1-(4-fluoro-2-methylphenyl)-3-(2-methyl-6-oxo-1,6-dihydropyridin-3-yl)-2,3-dihydroquinazolin-4(1H)-one] | 126 to 631 | 
4 | Cc1cc(OC(F)(F)F)ccc1N1CN(c2ccc(=O)[nH]c2C)C(=O)c2cc(Cl)c(C#N)cc21 [Example 172, 6-chloro-1-(2-methyl-4-(trifluoromethoxy)phenyl)-3-(2-methyl-6-oxo-1,6-dihydropyridin-3-yl)-4-oxo-1,2,3,4-tetra-hydroquinazoline-7-carbonitrile] | ≤ 100 | 
5 | COc1cc(F)ccc1N1CN(c2ccc(=O)[nH]c2C)C(=O)c2cc(C(F)(F)F)ccc21 [Example 226, 1-(4-fluoro-2-methoxyphenyl)-3-(2-methyl-6-oxo-1,6-dihydropyridin-3-yl)-6-(trifluoromethyl)-2,3-dihydroquinazolin-4(1H)-one] | ≤ 100 | 
6 | Cc1[nH]c(=O)ccc1N1CN(c2ccc(F)cc2C(C)(C)C)c2ccc(Cl)cc2C1=O [Example 95, 1-(2-(tert-butyl)-4-fluorophenyl)-6-chloro-3-(2-methyl-6-oxo-1,6-dihydropyridin-3-yl)-2,3-dihydroquinazolin-4(1H)-one] | ≤ 100 | 
7 | Cc1cc(F)ccc1N1CN(C2CNC(=O)NC2)C(=O)c2ccc(C(F)(F)F)cc21 [Example 270, 1-(4-fluoro-2-methylphenyl)-3-(2-oxohexahydro-pyrimidin-5-yl)-7-(trifluoromethyl)-2,3-dihydroquinazolin-4(1H)-one] | 126 to 631 | 
8 | CCc1[nH]c(=O)ccc1N1CN(c2ccc(F)cc2C)c2cc(C(F)(F)F)ccc2C1=O [drawing 291, 3-(2-ethyl-6-oxo-1,6-dihydropyridin-3-yl)-1-(4-fluoro-2-methylphenyl)-7-(trifluoromethyl)-2,3-dihydroquinazolin-4(1H)-one] |  | 20
9 | Cc1cc(F)ccc1N1CN(c2ccc(=O)[nH]c2C)Cc2cc(C(F)(F)F)ccc21 [Example 239, 5-(1-(4-fluoro-2-methylphenyl)-6-(trifluoromethyl)-1,4-dihydroquinazolin-3(2H)-yl)-6-methylpyridin-2(1H)-one] | 126 to 631 | 
10 | Cc1cc(F)ccc1N1CN(c2ccc(=O)[nH]c2C)C(=O)c2ccc(OC(F)(F)F)cc21 [Example 56, 1-(4-fluoro-2-methylphenyl)-3-(2-methyl-6-oxo-1,6-dihydropyridin-3-yl)-7-(trifluoromethoxy)-2,3-dihydroquinazolin-4(1H)-one] | ≤ 100 | 
11 | Cc1cc(F)ccc1N1CN(c2ccc(=O)[nH]c2C)C(=O)c2cc(F)c(C)nc21 [Example 71, 6-fluoro-1-(4-fluoro-2-methylphenyl)-7-methyl-3-(2-methyl-6-oxo-1,6-dihydropyridin-3-yl)-2,3-dihydropyrido[2,3-d]pyrimidin-4(1H)-one] | 126 to 631 | 
12 | Cc1cc(F)ccc1N1CN(c2ccc(=O)[nH]c2C)C(=O)c2cc(C(F)(F)F)c(F)cc21 [Example 107, 7-fluoro-1-(4-fluoro-2-methylphenyl)-3-(2-methyl-6-oxo-1,6-dihydropyridin-3-yl)-6-(trifluoromethyl)-2,3-dihydroquinazolin-4(1H)-one] | ≤ 100 | 
13 | Cc1cc(F)ccc1N1CN(c2ccc(=O)[nH]c2C)C(=O)c2c(C)cccc21 [Example 89, 1-(4-fluoro-2-methylphenyl)-5-methyl-3-(2-methyl-6-oxo-1,6-dihydropyridin-3-yl)-2,3-dihydroquinazolin-4(1H)-one] | ≤ 100 | 
14 | Cc1cc(F)ccc1N1CN(c2ccc(=O)[nH]c2C)C(=O)c2ccccc21 [drawing 297, 1-(4-fluoro-2-methylphenyl)-3-(2-methyl-6-oxo-1,6-dihydropyridin-3-yl)-2,3-dihydroquinazolin-4(1H)-one] |  | 63.1
15 | Cc1cc(F)ccc1N1CN(c2ccc(=O)[nH]c2C)C(=O)c2c1cc(F)c(Cl)c2F [Example 193, 6-chloro-5,7-difluoro-1-(4-fluoro-2-methylphenyl)-3-(2-methyl-6-oxo-1,6-dihydropyridin-3-yl)-2,3-dihydroquinazolin-4(1H)-one] | ≤ 100 | 
16 | Cc1cc(F)ccc1N1CN(c2ccc(=O)[nH]c2)C(=O)c2c1cccc2C(F)(F)F [drawing 267, 1-(4-fluoro-2-methylphenyl)-3-(6-oxo-1,6-dihydropyridin-3-yl)-5-(trifluoromethyl)-2,3-dihydroquinazolin-4(1H)-one] |  | 2510

Continued, values first:

Row | IC50 [1] [nM] | IC50 [2] [nM] | Compound
17 | 794 to 7940 |  | Cc1cc(C(F)(F)F)ccc1N1CN(c2ccc(=O)[nH]c2C)C(=O)c2cc(C(F)(F)F)cnc21 [Example 195, 1-(2-methyl-4-(trifluoromethyl)phenyl)-3-(2-methyl-6-oxo-1,6-dihydropyridin-3-yl)-6-(trifluoromethyl)-2,3-dihydropyrido[2,3-d]pyrimidin-4(1H)-one]
18 | ≤ 100 |  | Cc1[nH]c(=O)ccc1N1CN(c2ccc(F)cc2C(C)C)c2cc(F)ccc2C1=O [Example 93, 7-fluoro-1-(4-fluoro-2-isopropylphenyl)-3-(2-methyl-6-oxo-1,6-dihydropyridin-3-yl)-2,3-dihydroquinazolin-4(1H)-one]
19 | 126 to 631 |  | Cc1cc(F)ccc1N1CN(c2ccc(=O)[nH]c2C)C(=O)c2cc(Cl)cnc21 [Example 102, 6-chloro-1-(4-fluoro-2-methylphenyl)-3-(2-methyl-6-oxo-1,6-dihydropyridin-3-yl)-2,3-dihydropyrido[2,3-d]pyrimidin-4(1H)-one]
20 | 794 to 7940 |  | Cc1cc(F)ccc1N1CN(c2ccc(=O)[nH]n2)C(=O)c2ccc(C(F)(F)F)cc21 [Example 219, 1-(4-fluoro-2-methylphenyl)-3-(6-oxo-1,6-dihydropyridazin-3-yl)-7-(trifluoromethyl)-2,3-dihydroquinazolin-4(1H)-one]
21 | ≤ 100 |  | Cc1cc(C#N)ccc1N1CN(c2ccc(=O)[nH]c2C)C(=O)c2cc(OC(F)(F)F)ccc21 [Example 123, 3-methyl-4-(3-(2-methyl-6-oxo-1,6-dihydropyridin-3-yl)-4-oxo-6-(trifluoromethoxy)-3,4-dihydroquinazolin-1(2H)-yl)benzonitrile]
22 |  | 2000 | Cc1cc(F)ccc1N1CN(c2ccc(=O)n(C)c2)C(=O)c2ccc(C(F)(F)F)cc21 [drawing 265]
23 | ≤ 100 |  | CCc1[nH]c(=O)ccc1N1CN(c2ccc(F)cc2C)c2cc(C(F)(F)F)ccc2C1=O [Example 150, 3-(2-ethyl-6-oxo-1,6-dihydropyridin-3-yl)-1-(4-fluoro-2-methylphenyl)-7-(trifluoromethyl)-2,3-dihydroquinazolin-4(1H)-one]
24 | ≤ 100 |  | Cc1cc(F)ccc1N1CN(c2ccc(=O)[nH]c2C)C(=O)c2c1ccc(C(F)(F)F)c2F [Example 108, 5-fluoro-1-(4-fluoro-2-methylphenyl)-3-(2-methyl-6-oxo-1,6-dihydropyridin-3-yl)-6-(trifluoromethyl)-2,3-dihydroquinazolin-4(1H)-one]
25 |  | 6310 | COc1cc(F)ccc1N1CN(c2ccc(=O)[nH]c2)C(=O)c2c1cccc2C(F)(F)F [drawing 281, 1-(4-fluoro-2-methoxyphenyl)-3-(6-oxo-1,6-dihydropyridin-3-yl)-5-(trifluoromethyl)-2,3-dihydroquinazolin-4(1H)-one]
26 | ≤ 100 |  | Cc1ccc(N2CN(c3ccc(=O)[nH]c3C)C(=O)c3ccc(C(F)(F)F)cc32)c(C)c1 [Example 203, 1-(2,4-dimethylphenyl)-3-(2-methyl-6-oxo-1,6-dihydropyridin-3-yl)-7-(trifluoromethyl)-2,3-dihydroquinazolin-4(1H)-one]
